Assay results: US20180057553A1, “CONJUGATE AND USE THEREOF” (The University of Tokyo, priority 2015, published 2018)
Read-outs that look alike come from different tables or passages of the source.

Tests used:
[1] = biological target: T1, Recombinant human intelectin-1 (Homo sapiens, UniProt Q8WWA0, V109D); assay: Inhibition of the binding of intelectin to a 3-amino-1-propanediol sensor chip by various compounds (Biacore, Example 3)
Protocol: The binding of purified intelectin to a sensor chip to which 3-amino-1-propanediol is fixed via an amino group was measured using Biacore (GE Healthcare Biosciences) under the presence of various kinds of compounds that were serially diluted. Recombinant human intelectin-1 was used as intelectin. The above-mentioned compound was a compound containing or not containing a diol group. Specifically, the compound was glycerol, 1,2-propanediol, 1,3-propanediol, 1-propanol, ethylene glycol, ethanol, 2-methoxyethanol, galactose, 2-acetamido-2-deoxy-4-O-beta-D-galactopyranosyl-D-glucopyranose (Galp-GlcNAc), 2-acetamido-2-deoxy-4-O-beta-D-galactofuranosyl-D-glucopyranose (Galf-GlcNAc), D-ribose, or L-ribose.
Intelectin was used at the final concentration of 0.5 microgram/mL. 10 mM HEPES (pH 7.0) containing 1 mM CaCl2, 150 mM NaCl, and 0.03% Tween 20 was used as the measuring buffer. The binding of intelectin measured using the sample that was not added with an above-mentioned compound was considered 100%, and the binding of intelectin in each sample was measured.

[2] = biological target: T1, Recombinant human intelectin-1; assay: Binding of monoacylglycerol and intelectin (precipitation, SDS-PAGE, Example 5); settings: lipid 100 micro M in medium containing intelectin, 15 minutes at 37 deg C
Protocol: Monoacylgrycerols such as monopalmitin and monoolein are used as a component of micelles or liposomes. 1-monopalmitin, 2-monopalmitin, or 1-palmitoyl lysophosphatidic acid as a negative control at the final concentration of 100 micro M was added to 500 microliters of a medium containing intelectin, and the medium was stirred intensely and incubated for 15 minutes at 37 deg C. Recombinant human intelectin-1 was used as intelectin. By the above-mentioned procedures, it is expected that insoluble aggregates having a micelle-like structure with the diol group facing outwards and the acyl group facing inwards are formed and intelectin binds on the surface.
Subsequently, the samples were cooled for 15 minutes at 4 deg C. and centrifuged, and the precipitation was collected, washed once with buffer, and dissolved in sample buffer. Samples were then separated by SDS-PAGE and stained with Coomassie Brilliant Blue.

[3] = biological target: T2, Recombinant human TNF-alpha (Homo sapiens, UniProt P01375); assay: Affinity between the conjugate of TNFR2 and intelectin and TNF-alpha (Biacore, Example 11); type: binding; settings: TNF-alpha as analyte, ligand fixed to sensor chip
T2 construct: purchased Life Technologies
T2 sequence (P01375 77-233 limits assumed): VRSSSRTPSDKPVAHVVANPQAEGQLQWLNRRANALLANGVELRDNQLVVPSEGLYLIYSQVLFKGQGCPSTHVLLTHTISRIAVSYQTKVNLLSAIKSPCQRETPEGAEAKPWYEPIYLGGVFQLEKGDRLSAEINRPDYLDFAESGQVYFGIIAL
Protocol: The binding affinity between the conjugate generated in Example 7 and TNF-alpha was measured using Biacore (GE Healthcare Biosciences). The binding affinity between a commercially available anti-TNF formulation (Etanercept, soluble TNF receptor, product name “ Enbrel (registered trademark),” Takeda Pharmaceutical Company) and TNF-alpha was also measured as a control.
Recombinant human TNF-alpha (Life Technologies) was used as TNF-alpha.

[4] = biological target: T2, Recombinant human TNF-alpha; assay: Inhibitory effect on cytotoxicity by TNF-alpha in L929 cells (Example 12); type: cell-based, mouse; settings: actinomycin D 2.12 micro M, TNF-alpha 1 ng/mL, 24 hours
Protocol: Actinomycin D at the final concentration of 2.12 micro M, recombinant human TNF-alpha (Life Technologies) at the final concentration of 1 ng/mL, and serially diluted conjugates generated in Example 7 were added to the medium of L929, a mouse-derived cell line, and the cells were cultured for 24 hours at 37 deg C. Subsequently, the number of live cells were measured using a commercially available kit (model “CellTiter96 (Trademark),” Promega), and the cell survival rate was determined. Another experiment, where a commercially available anti-TNF formulation (Etanercept, soluble TNF receptor, product name “ Enbrel (registered trademark),” Takeda Pharmaceutical Company) was used instead of the conjugate generated in Example 7, was also performed as a control.

IL-6 protein = IL-6 protein (Homo sapiens, UniProt P05231); assay: ELISA on IL-6 protein with the conjugate of antibody Fab fragment and intelectin (Example 8); type: binding; settings: conjugate as primary antibody; HRP-labeled anti-intelectin-1 antibody 2D2
Chain of IL-6 protein (P05231 30-212): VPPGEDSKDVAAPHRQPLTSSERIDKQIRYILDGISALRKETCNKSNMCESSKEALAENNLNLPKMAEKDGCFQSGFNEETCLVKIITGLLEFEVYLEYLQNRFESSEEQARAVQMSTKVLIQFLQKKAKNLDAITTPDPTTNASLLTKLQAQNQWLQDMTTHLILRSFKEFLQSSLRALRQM
Protocol: An ELISA analysis on IL-6 protein was performed using the conjugate generated in Example 6.
More specifically, IL-6 protein was adsorbed on an ELISA plate, and the conjugate generated in Example 6 was used for reaction as the primary antibody, and the horseradish peroxidase-labeled anti-intelectin-1 monoclonal antibody (2D2) was used for reaction as the secondary antibody. The detection was conducted using 3,3′,5,5′-tetramethylbenzidine.

[5] = Biacore, intelectin 0.5 microgram/mL, sensor chip with 3-amino-1-propanediol fixed, 10 mM HEPES pH 7.0, 1 mM CaCl2, read-out: IC50 for inhibition of the binding of intelectin and the diol group

T1 sequence (Q8WWA0 19-298 V109D): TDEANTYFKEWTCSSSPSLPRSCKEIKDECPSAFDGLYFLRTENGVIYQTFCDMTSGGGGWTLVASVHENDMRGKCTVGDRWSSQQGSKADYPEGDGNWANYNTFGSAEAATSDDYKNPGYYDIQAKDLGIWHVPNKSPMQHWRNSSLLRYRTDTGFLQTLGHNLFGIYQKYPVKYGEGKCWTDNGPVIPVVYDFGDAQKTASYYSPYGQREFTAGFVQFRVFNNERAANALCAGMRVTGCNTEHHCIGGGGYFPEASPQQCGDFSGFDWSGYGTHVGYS

| Compound | IC50 [1, 5] [mM] | also measured |
| --- | --- | --- |
| CCC(O)CO (stereo not drawn) [1,2-butanediol] | 0.8 |  |
| CC(O)CO (stereo not drawn) [1,2-propanediol] | 0.9 |  |
| CC(O)CCO (stereo not drawn) [1,3-butanediol] | 35 |  |
| OCCCO [1,3-propanediol] | 30 |  |
| OCCCCO [1,4-butanediol] |  | IC50 [1]: > 100 mM |
| CCCCCCCCCCCCCCCC(=O)OCC(O)CO (stereo not drawn) [1-monopalmitin] |  | binding of intelectin to the lipid (SDS-PAGE) [2]: bound |
| CCCCCCCCCCCCCCCC(=O)OCC(O)COP(=O)(O)O (stereo not drawn) [1-palmitoyl lysophosphatidic acid] |  | binding of intelectin to the lipid (SDS-PAGE) [2]: only slightly |
| CCCO [1-propanol] | > 100 |  |
| COC1(C(=O)O)C[C@H](O)[C@@H](NC(C)=O)[C@H]([C@H](O)[C@H](O)CO)O1 (stereo partly drawn) [2-O-methyl-D-N-acetylneuraminic acid] | 6 |  |
| O=CC[C@@H](O)[C@@H](O)[C@H](O)CO [2-deoxygalactose] | 1.1 |  |
| O=CC[C@H](O)[C@H](O)CO [2-deoxyribose] | 1.8 |  |
| COCCO [2-methoxyethanol] | > 100 |  |
| CCCCCCCCCCCCCCCC(=O)OC(CO)CO [2-monopalmitin] |  | binding of intelectin to the lipid (SDS-PAGE) [2]: bound |
| NCC(O)CO (stereo not drawn) [3-amino-1,2-propanediol] | 1.8 |  |
| NCCCO [3-amino-1-propanol] | > 100 |  |
| C[C@@H](O)CO [(R)-1,2-propanediol] | 1 |  |
| C[C@@H](O)[C@@H](C)O [(R,R)-2,3-butanediol] | 5 |  |
| C[C@H](O)CO [(S)-1,2-propanediol] | 1.2 |  |
| C[C@H](O)[C@H](C)O [(S,S)-2,3-butanediol] | 5 |  |
| O=P(O)(O)OC(CO)CO [Beta-glycerophosphate] | > 100 |  |
| O=C[C@@H](O)[C@H](O)[C@H](O)CO [D-arabinose] | 30 |  |
| O=C(CO)[C@@H](O)[C@H](O)[C@H](O)CO [D-fructose] |  | IC50 [1]: 9 mM |
| C[C@@H](O)[C@H](O)[C@H](O)[C@@H](O)C=O [D-fucose] | 60 |  |
| O=C[C@H](O)[C@@H](O)[C@@H](O)[C@H](O)CO [D-galactose] |  | IC50 [1]: 11 mM |
| O=C[C@H](O)[C@@H](O)[C@H](O)[C@H](O)CO [D-glucose] |  | IC50 [1]: 18 mM |
| O=C[C@@H](O)[C@@H](O)[C@H](O)CO [D-lyxose] | 22 |  |

| Compound | IC50 [1, 5] [mM] | also measured |
| --- | --- | --- |
| O=C[C@@H](O)[C@@H](O)[C@H](O)[C@H](O)CO [D-mannose] |  | IC50 [1]: 16 mM |
| O=C[C@H](O)[C@H](O)[C@H](O)CO [D-ribose] | 0.5 |  |
| O=C[C@H](O)[C@@H](O)[C@H](O)CO [D-xylose] | 3.3 |  |
| NCCO [Ethanolamine] | > 100 |  |
| CC(=O)N[C@H]1C(O)O[C@H](CO)[C@@H](O[C@@H]2O[C@@H]([C@H](O)CO)[C@H](O)[C@H]2O)[C@@H]1O (stereo partly drawn) [Galf-GlcNAc, 2-acetamido-2-deoxy-4-O-beta-D-galactofuranosyl-D-glucopyranose] | 1.4 |  |
| CC(=O)N[C@H]1C(O)O[C@H](CO)[C@@H](O[C@@H]2O[C@H](CO)[C@H](O)[C@H](O)[C@H]2O)[C@@H]1O (stereo partly drawn) [Galp-GlcNAc, 2-acetamido-2-deoxy-4-O-beta-D-galactopyranosyl-D-glucopyranose] | 13 |  |
| O=C[C@H](O)[C@@H](O)[C@@H](O)CO [L-arabinose] | 22 |  |
| O=C1O[C@H]([C@@H](O)CO)C(O)=C1O [L-ascorbic acid] | 0.8 |  |
| C[C@H](O)[C@@H](O)[C@@H](O)[C@H](O)C=O [L-fucose] | > 100 |  |
| O=C[C@H](O)[C@H](O)[C@@H](O)CO [L-lyxose] | 13 |  |
| C[C@H](O)[C@H](O)[C@@H](O)[C@@H](O)C=O [L-rhamnose] | 30 |  |
| O=C[C@@H](O)[C@@H](O)[C@@H](O)CO [L-ribose] | 0.3 |  |
| O=C(CO)[C@@H](O)[C@H](O)[C@@H](O)CO [L-sorbose] |  | IC50 [1]: 14 mM |
| O=C[C@@H](O)[C@H](O)[C@@H](O)CO [L-xyrose] | 9 |  |
| CC(=O)N[C@H]1C(O)O[C@H](CO)[C@@H](O)[C@@H]1O (stereo partly drawn) [N-acetylglucosamine] | 50 |  |
| NC(CO)(CO)CO [Tris] | 14 |  |
| O=P(O)(O)OCC(O)CO (stereo not drawn) [alpha-glycerophosphate] | 1.2 |  |
| CCO [ethanol] | > 100 |  |
| OCCO [ethylene glycol] |  | IC50 [1]: 2.2 mM |
| OCC(O)CO [glycerol] | 0.8 |  |
| C[C@H](O)[C@@H](C)O [meso-2,3-butanediol] | 1.8 |  |
| CCCC(=O)OCC(O)CO (stereo not drawn) [monobutyrin] | 0.8 |  |
| OC[C@@H](O)[C@@H](O)[C@@H](O)CO [ribitol] | 1.2 |  |
| Etanercept |  | association rate constant Ka [3]: 1.09e+06 M⁻¹ s⁻¹; dissociation rate constant Kd [3]: 0.000342 s⁻¹; Kd ([3]; read-out: dissociation constant KD): 0.313 nM; cytotoxicity inhibitory activity (cell survival rate) [4]: approximately equivalent cytotoxicity inhibitory activities |
| conjugate generated in Example 6: H chain Fab region of anti-IL-6 monoclonal antibody MH166 joined via one glycine to human intelectin-1 (S165A), co-expressed with MH166 L chain |  | binding to IL-6 protein (ELISA) (IL-6 protein): bind to IL-6 protein |
